The source of these data is patent US20120046306A1, “Substituted Heteroaryl Spiropyrrolidine MDM2 Antagonists” (priority 2010, published 2012).

Sequence of interaction between p53 and MDM2 proteins (Q00987 whole entry): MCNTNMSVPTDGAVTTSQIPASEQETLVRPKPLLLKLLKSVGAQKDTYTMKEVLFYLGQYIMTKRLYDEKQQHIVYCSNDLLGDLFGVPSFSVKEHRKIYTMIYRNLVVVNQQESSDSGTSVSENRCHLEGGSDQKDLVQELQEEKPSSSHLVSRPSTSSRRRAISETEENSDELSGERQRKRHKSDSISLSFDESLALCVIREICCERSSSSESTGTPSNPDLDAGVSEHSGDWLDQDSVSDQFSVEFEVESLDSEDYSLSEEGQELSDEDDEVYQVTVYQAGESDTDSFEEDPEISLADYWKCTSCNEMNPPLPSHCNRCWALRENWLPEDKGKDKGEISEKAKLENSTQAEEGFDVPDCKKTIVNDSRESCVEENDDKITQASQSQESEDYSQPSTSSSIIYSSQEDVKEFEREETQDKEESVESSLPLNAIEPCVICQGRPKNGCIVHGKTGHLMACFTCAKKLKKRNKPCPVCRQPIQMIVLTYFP

The target of the test is interaction between p53 and MDM2 proteins (Homo sapiens, UniProt Q00987). The test can be described thus: HTRF assay of inhibition of p53-MDM2 interaction. As to conditions: GST-MDM2 and biotinylated p53 peptide, bsa: 0.02%. The class given is binding. Here is the method:
The ability of the compounds to inhibit the interaction between p53 and MDM2 proteins was measured by an HTRF (homogeneous time-resolved fluorescence) assay in which recombinant GST-tagged MDM2 binds to a peptide that resembles the MDM2-interacting region of p53. Binding of GST-MDM2 protein and p53-peptide (biotinylated on its N-terminal end) is registered by the FRET (fluorescence resonance energy transfer) between Europium (Eu)-labeled anti-GST antibody and streptavidin-conjugated Allophycocyanin (APC).
Add 20 uL streptavidin-APC and Eu-anti-GST antibody mixture (6 nM Eu-anti-GST and 60 nM streptavidin-APC working solution) in TBS buffer with 0.2% BSA, shake at room temperature for 30 minutes and read using a TRF-capable plate reader at
If not specified, the reagents were purchased from Sigma Chemical Co.
Regarding `COc1cc(OCCO)ccc1NC(=O)[C@@H]1N[C@@H](CC(C)(C)C)[C@@]2(C(=O)Nc3cc(Cl)ncc32)[C@H]1c1cccc(Cl)c1F` (racemic) [Example 117, rac-(2S,3R,4S,5R)-6′-chloro-4-(3-chloro-2-fluorophenyl)-N-(4-(2-hydroxyethoxy)-2-methoxyphenyl)-2-neopentyl-2′-oxo-1′,2′-dihydrospiro[pyrrolidine-3,3′-pyrrolo[3,2-c]pyridine]-5-carboxamide], 14 nM corresponded to half-maximal inhibition (IC50).
As for `COC(=O)c1ccc(NC(=O)[C@@H]2N[C@@H](CC(C)(C)C)[C@@]3(C(=O)Nc4cc(C)ncc43)[C@H]2c2cccc(Cl)c2F)c(OC)c1` (racemic) [Example 119, methyl rac-4-((2S,3R,4S,5R)-4-(3-chloro-2-fluorophenyl)-6′-methyl-2-neopentyl-2′-oxo-1′,2′-dihydrospiro[pyrrolidine-3,3′-pyrrolo[3,2-c]pyridine]-5-ylcarboxamido)-3-methoxybenzoate], the figure is 11.6 nM.
Turning to `COc1cc(C(=O)O)ccc1NC(=O)[C@@H]1N[C@@H](CC(C)(C)C)[C@@]2(C(=O)Nc3cc(C)ncc32)[C@H]1c1cccc(Cl)c1F` (racemic) [Example 120, rac-4-((2S,3R,4S,5R)-4-(3-chloro-2-fluorophenyl)-6′-methyl-2-neopentyl-2′-oxo-1′,2′-dihydrospiro[pyrrolidine-3,3′-pyrrolo[3,2-c]pyridine]-5-ylcarboxamido)-3-methoxybenzoic acid], the midpoint of inhibition, the IC50, lay at 12 nM.
As for `COc1cc(C(N)=O)ccc1NC(=O)[C@@H]1N[C@@H](CC(C)(C)C)[C@@]2(C(=O)Nc3cc(C)ncc32)[C@H]1c1cccc(Cl)c1F` (racemic) [Example 121, rac-(2S,3R,4S,5R)-N-(4-carbamoyl-2-methoxyphenyl)-4-(3-chloro-2-fluorophenyl)-6′-methyl-2-neopentyl-2′-oxo-1′,2′-dihydrospiro[pyrrolidine-3,3′-pyrrolo[3,2-c]pyridine]-5-carboxamide], it took 11.8 nM to reach half-maximal inhibition (IC50).
Take `COC(=O)c1ccc(NC(=O)[C@@H]2N[C@@H](CC(C)(C)C)[C@@]3(C(=O)Nc4c(Cl)ccnc43)[C@H]2c2cccc(Cl)c2F)c(OC)c1` (racemic) [Example 123, methyl rac-4-((2S,3S,4S,5R)-7′-chloro-4-(3-chloro-2-fluorophenyl)-2-neopentyl-2′-oxo-1′,2′-dihydrospiro[pyrrolidine-3,3′-pyrrolo[3,2-b]pyridine]-5-ylcarboxamido)-3-methoxybenzoate]: the IC50 worked out at 6250 nM.
For the compound `COc1cc(C(=O)O)ccc1NC(=O)[C@@H]1N[C@@H](CC(C)(C)C)[C@@]2(C(=O)Nc3c(Cl)ccnc32)[C@H]1c1cccc(Cl)c1F` (racemic) [Example 124, rac-4-((2S,3S,4S,5R)-7′-chloro-4-(3-chloro-2-fluorophenyl)-2-neopentyl-2′-oxo-1′,2′-dihydrospiro[pyrrolidine-3,3′-pyrrolo[3,2-b]pyridine]-5-ylcarboxamido)-3-methoxybenzoic acid], the IC50 was 1010 nM.
For `COc1cc(OCCO)ccc1NC(=O)[C@@H]1N[C@@H](CC(C)(C)C)[C@@]2(C(=O)Nc3cc(Cl)cnc32)[C@H]1c1cccc(Cl)c1F` [Example 75, (2S,3S,4S,5R)-6′-chloro-4-(3-chloro-2-fluorophenyl)-N-(4-(2-hydroxyethoxy)-2-methoxyphenyl)-2-neopentyl-2′-oxo-1′,2′-dihydrospiro[pyrrolidine-3,3′-pyrrolo[3,2-b]pyridine]-5-carboxamide], inhibition was half-maximal at 6.4 nM (IC50).
